# In patent publication US20060180677A1, “Agricultural compositions which enhance performance of pesticides applied through drift reducing nozzles” (priority 2005, published 2006):
# Key:
# Velvetleaf = Velvetleaf control after glyphosate spray, by nozzle type and adjuvant; format: in vivo; conditions: 28 days after treatment with glyphosate (0.375 lb ae/ac)
# Text: (§1) The numbers in this table are percent control or percent kill of the weed.
# Hemp sesbania = Hemp sesbania control after glyphosate spray, by nozzle type and adjuvant; format: in vivo; conditions: 28 days after treatment with glyphosate (0.375 lb ae/ac)
# Text: as §1
smiles,measurement,setting,value
O=C(O)CNCP(=O)(O)O [glyphosate],"Velvetleaf control, InJet 110015 Nozzle","Velvetleaf; Table 1, InJet 110015 nozzle",85%
same,"Velvetleaf control, XR110015 Nozzle",Velvetleaf; Table 1,83%
same,"Velvetleaf control, DR 110015 Nozzle","Velvetleaf; Table 5, DR 110015 nozzle",90%
same,"Velvetleaf control, XR110015 Nozzle",Velvetleaf; Table 5,87%
same,"Hemp sesbania control, InJet 110015 Nozzle","Hemp sesbania; Table 2, InJet 110015 nozzle",20%
same,"Hemp sesbania control, XR110015 Nozzle",Hemp sesbania; Table 2,41%
same,"Hemp sesbania control, DR 110015 Nozzle","Hemp sesbania; Table 6, DR 110015 nozzle",50%
same,"Hemp sesbania control, XR110015 Nozzle",Hemp sesbania; Table 6,67%
